In paper PMC5467694 (European journal of pharmacology, 2009):

Assays:
recombinant human Neu1 = recombinant human Neu1 (Homo sapiens, UniProt Q99519); experiment: NA inhibition assay, recombinant human Neu1; type: biochemical
recombinant human Neu2 = recombinant human Neu2 (Homo sapiens, UniProt Q9Y3R4); experiment: NA inhibition assay, recombinant human Neu2; type: biochemical
recombinant human Neu3 = target: T1, recombinant human Neu3 (Homo sapiens, UniProt Q9UQ49); experiment: NA inhibition assay, recombinant human Neu3; type: biochemical
T1 sequence (Q9UQ49 1-428): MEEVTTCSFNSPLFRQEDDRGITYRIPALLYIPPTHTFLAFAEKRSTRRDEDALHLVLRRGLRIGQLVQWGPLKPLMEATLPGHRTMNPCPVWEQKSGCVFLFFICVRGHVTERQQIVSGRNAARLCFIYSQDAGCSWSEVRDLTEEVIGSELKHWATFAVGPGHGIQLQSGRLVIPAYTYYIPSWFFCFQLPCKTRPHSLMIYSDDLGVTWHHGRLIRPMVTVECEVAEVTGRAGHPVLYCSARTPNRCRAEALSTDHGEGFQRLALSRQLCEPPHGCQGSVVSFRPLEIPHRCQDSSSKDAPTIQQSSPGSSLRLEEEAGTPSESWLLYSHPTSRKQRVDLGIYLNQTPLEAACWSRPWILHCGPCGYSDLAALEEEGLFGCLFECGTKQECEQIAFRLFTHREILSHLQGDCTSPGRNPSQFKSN

recombinant human Neu4 = target: T2, recombinant human Neu4 (Homo sapiens, UniProt Q8WWR8); experiment: NA inhibition assay, recombinant human Neu4; type: biochemical
T2 sequence (Q8WWR8 1-484): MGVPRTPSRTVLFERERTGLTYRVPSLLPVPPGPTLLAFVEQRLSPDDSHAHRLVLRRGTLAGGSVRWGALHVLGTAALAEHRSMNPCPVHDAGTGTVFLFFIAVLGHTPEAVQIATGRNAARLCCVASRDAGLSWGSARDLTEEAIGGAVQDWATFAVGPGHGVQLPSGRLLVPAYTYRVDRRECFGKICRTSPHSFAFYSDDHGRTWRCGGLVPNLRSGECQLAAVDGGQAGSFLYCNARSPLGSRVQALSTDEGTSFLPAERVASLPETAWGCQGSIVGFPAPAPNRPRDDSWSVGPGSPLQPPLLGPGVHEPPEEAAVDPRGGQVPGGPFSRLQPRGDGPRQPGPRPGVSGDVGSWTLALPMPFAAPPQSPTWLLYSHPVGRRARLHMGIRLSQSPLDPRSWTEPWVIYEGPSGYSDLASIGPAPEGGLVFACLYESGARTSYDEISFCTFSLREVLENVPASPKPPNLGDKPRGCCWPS

[1] = tested on: native non-human primate brain NA activity (microsomal and membrane fractions); experiment: NA inhibition assay, non-human primate brain extracts; type: biochemical, Macaca fascicularis
[2] = tested on: NA activity in rat brain tissue; experiment: NA inhibition assay, rat brain-derived tissue; type: biochemical; conditions: concentrations up to 1 mM
[3] = tested on: recombinant human NAs Neu1–4; experiment: NA inhibition assay, all 4 recombinant human NAs; type: biochemical; conditions: for partial inhibition of all 4 human NAs: concentrations higher than 1 mM; for inhibition of all 4 human NAs: up to a concentration of 1 mM
[4] = tested on: panel of 155 molecular targets unrelated to NAs; experiment: Selectivity panel of 155 molecular targets unrelated to NAs; conditions: for pharmacological activity on panel targets: 3 and 30 μM, 50% cut-off for relevance; for low levels of activity, inhibition/stimulation, on eleven targets: at either 3 μM or 30 μM
[5] = target: recombinant α1β2γ2 GABAA receptor (Homo sapiens, UniProt P14867+P18507+P47870); experiment: Electrophysiological GABAA patch-clamp assay; type: cell-based
recombinant α1β2γ2 GABAA receptor, sequence (P14867 28-456): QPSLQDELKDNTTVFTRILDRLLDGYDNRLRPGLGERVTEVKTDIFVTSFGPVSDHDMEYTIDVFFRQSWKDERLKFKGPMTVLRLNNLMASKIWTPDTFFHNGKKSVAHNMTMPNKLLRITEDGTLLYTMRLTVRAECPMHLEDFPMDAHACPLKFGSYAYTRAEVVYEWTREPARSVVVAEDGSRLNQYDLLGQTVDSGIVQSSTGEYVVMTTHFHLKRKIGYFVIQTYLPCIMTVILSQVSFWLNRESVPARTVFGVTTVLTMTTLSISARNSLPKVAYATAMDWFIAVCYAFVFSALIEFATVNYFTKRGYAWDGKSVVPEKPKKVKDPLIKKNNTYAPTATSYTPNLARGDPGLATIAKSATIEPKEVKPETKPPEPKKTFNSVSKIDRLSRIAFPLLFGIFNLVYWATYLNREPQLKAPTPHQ
recombinant α1β2γ2 GABAA receptor, sequence (P47870 25-512 limits assumed): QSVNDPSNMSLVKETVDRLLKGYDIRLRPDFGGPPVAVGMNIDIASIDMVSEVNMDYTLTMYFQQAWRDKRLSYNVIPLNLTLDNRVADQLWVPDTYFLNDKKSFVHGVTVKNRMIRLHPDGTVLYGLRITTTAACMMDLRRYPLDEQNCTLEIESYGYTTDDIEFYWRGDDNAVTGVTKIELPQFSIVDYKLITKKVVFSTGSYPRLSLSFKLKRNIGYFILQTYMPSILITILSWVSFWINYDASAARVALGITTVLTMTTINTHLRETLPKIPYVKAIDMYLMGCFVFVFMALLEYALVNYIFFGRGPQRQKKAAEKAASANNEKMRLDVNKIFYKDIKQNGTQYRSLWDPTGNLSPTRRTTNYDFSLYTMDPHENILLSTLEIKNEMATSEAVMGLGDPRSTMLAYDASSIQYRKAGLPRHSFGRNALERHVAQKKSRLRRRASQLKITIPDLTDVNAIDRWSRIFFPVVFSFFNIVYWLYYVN
recombinant α1β2γ2 GABAA receptor, sequence (P18507 40-475): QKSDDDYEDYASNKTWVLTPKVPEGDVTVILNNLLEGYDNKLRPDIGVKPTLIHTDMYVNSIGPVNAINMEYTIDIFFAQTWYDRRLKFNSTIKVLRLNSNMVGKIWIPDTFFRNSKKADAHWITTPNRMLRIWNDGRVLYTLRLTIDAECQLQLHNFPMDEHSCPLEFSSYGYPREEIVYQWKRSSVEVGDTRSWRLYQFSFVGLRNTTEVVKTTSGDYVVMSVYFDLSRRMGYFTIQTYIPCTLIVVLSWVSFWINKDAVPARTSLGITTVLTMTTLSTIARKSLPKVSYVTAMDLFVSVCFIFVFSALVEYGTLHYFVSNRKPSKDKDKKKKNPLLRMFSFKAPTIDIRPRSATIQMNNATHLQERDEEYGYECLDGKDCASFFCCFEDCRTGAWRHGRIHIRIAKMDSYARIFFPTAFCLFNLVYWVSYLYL

[6] = Steady-state exposure in adults, standard regimen; type: in vivo, human; conditions: 75 mg twice daily for 5 days
human Neu1 = conditions: read-out: IC50 on human Neu1; recombinant; ref Hata et al. (2008); cited from earlier work
human Neu2 = conditions: read-out: IC50 on human Neu2; recombinant; ref Hata et al. (2008); cited from earlier work
human Neu3 = conditions: read-out: IC50 on human Neu3; recombinant; ref Hata et al. (2008); cited from earlier work
human Neu4 = conditions: read-out: IC50 on human Neu4; recombinant; ref Hata et al. (2008); cited from earlier work
[7] = tested on: NA activity of different viral strains; conditions: read-out: IC50 on NA activity of different viral strains; ref Hata et al. (2008); cited from earlier work
recombinant human NAs = conditions: concentrations up to 1 mM; ref Hata et al. (2008); cited from earlier work
[8] = tested on: Gαi- and Gαs-linked G protein-coupled receptors in whole rat brain membranes; conditions: ref Satoh et al. (2007); cited from earlier work
[9] = target: recombinant influenza virus NA (Influenza A virus, UniProt Q30NP8); experiment: NA inhibition assay, recombinant influenza virus NA; type: biochemical, influenza strain A/Beijing/39/1975 H3N2
recombinant influenza virus NA, sequence (Q30NP8 whole entry, looked up): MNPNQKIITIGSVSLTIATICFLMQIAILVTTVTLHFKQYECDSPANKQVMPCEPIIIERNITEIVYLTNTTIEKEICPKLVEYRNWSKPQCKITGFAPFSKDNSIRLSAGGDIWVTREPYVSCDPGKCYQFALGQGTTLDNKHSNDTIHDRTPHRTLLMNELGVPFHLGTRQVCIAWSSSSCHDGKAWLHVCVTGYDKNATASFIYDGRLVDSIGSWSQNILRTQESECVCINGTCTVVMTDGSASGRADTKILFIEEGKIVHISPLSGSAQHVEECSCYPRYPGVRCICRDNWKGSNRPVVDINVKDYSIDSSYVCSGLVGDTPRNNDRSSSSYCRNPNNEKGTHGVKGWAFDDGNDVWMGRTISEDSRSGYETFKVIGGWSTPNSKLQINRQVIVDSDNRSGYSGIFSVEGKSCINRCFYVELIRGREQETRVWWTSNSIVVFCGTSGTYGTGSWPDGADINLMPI

[10] = concentrations higher than 1 mM
[11] = concentrations higher than 5 mM
[12] = concentrations higher than 2 mM
[13] = concentrations higher than 10 mM
[14] = microsomal and membrane fractions, concentrations up to 10 mM

recombinant human Neu2, sequence (Q9Y3R4 whole entry): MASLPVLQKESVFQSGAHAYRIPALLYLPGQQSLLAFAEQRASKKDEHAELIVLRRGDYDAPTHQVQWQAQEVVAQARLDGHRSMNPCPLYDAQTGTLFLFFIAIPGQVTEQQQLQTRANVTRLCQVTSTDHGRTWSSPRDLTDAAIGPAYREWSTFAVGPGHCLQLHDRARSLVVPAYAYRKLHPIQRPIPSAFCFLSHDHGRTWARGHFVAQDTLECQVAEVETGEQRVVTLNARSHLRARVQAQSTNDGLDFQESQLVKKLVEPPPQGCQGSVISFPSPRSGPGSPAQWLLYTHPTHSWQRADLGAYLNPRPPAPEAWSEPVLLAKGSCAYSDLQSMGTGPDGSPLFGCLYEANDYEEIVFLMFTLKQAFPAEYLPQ

SMILES	inhibitory activity on Neu1 (recombinant human Neu1; [10])	inhibitory activity on Neu1 (recombinant human Neu1; concentrations up to 1 mM)	inhibitory activity on Neu2 (recombinant human Neu2; [11])	inhibitory activity on Neu2 (recombinant human Neu2; concentrations up to 5 mM)	inhibitory activity on Neu3 (recombinant human Neu3; [11])	inhibitory activity on Neu3 (recombinant human Neu3; concentrations up to 5 mM)	inhibitory activity on Neu4 (recombinant human Neu4; [12])	inhibitory activity on Neu4 (recombinant human Neu4; concentrations up to 2 mM)	inhibition of non-human primate brain NA activity [1, 13]	inhibition of non-human primate brain NA activity [1, 14]	inhibition of NA activity in rat brain tissue [2]	partial inhibition of all 4 human NAs [3]	inhibition of all 4 human NAs [3]	pharmacological activity on panel targets [4]	low levels of activity, inhibition/stimulation, on eleven targets [4]	activity on GABAA in patch-clamp, on GABA and pentobarbital [5]	extrapolated brain Cmax [6]	effect on [35S]-GTP-γS binding [8]	further results
CCC(CC)O[C@@H]1C=C(C(=O)O)C[C@H](N)[C@H]1NC(C)=O [OC, oseltamivir carboxylate]	partial inhibition	no inhibitory activity	partial inhibition	no inhibition	partial inhibition	no inhibition	trend for an inhibitory activity	no inhibition	partial inhibition	no inhibition	no inhibition	20–40%	no inhibition	no relevant pharmacological activity	20–27%	lack of any significant, inhibitory, excitatory or modulatory activity	~ 77 nM	no effect	IC50 (human Neu1): > 10 mM; IC50 (human Neu2): > 6 mM; IC50 (human Neu3): > 10 mM; IC50 (human Neu4): > 10 mM; IC50 [7]: 1.6 to 7.1 nM; inhibitory activity on any of the human NAs (recombinant human NAs): no or negligible inhibitory activity
CCOC(=O)C1=C[C@@H](OC(CC)CC)[C@H](NC(C)=O)[C@@H](N)C1 [OP, oseltamivir phosphate]	partial inhibition	no inhibitory activity	partial inhibition	no inhibition	partial inhibition	no inhibition	trend for an inhibitory activity	no inhibition	partial inhibition	no inhibition	no inhibition	20–40%	no inhibition	no relevant pharmacological activity	20–41%	lack of any significant, inhibitory, excitatory or modulatory activity	~ 6.7 nM	no effect	IC50 [9]: ~10 µM
